{
  "source": "ChEMBL document CHEMBL1136865",
  "about": "“Effects of detergents on the West Nile virus protease activity” (Bioorg Med Chem, 2009)",
  "key": {"West Nile virus [1]": {"test_system": "West Nile virus", "test": "Increase in West Nile virus NS3 protease activity at =>0.01 to 0.1 % by spectrofluorimetry using Boc-Gly-Lys-Arg-AMC substrate relative to control"}, "West Nile virus [2]": {"test_system": "West Nile virus", "test": "Increase in West Nile virus NS3 protease activity up to 0.5% by spectrofluorimetry using Boc-Gly-Lys-Arg-AMC substrate relative to control"}},
  "note": "The source made the active and inactive calls. No cut-off for these calls is given here.",
  "data": [
    {"smiles": "C[C@H](CCC(=O)NCCC[N+](C)(C)CCCS(=O)(=O)[O-])[C@H]1CC[C@H]2[C@@H]3[C@H](O)C[C@@H]4C[C@H](O)CC[C@]4(C)[C@H]3C[C@H](O)[C@]12C", "values": [
      {"measurement": "Activity", "setting": "West Nile virus [1]", "result": "inactive"},
      {"measurement": "Activity", "setting": "West Nile virus [2]", "result": "inactive"}
    ]}
  ]
}
